Earlier results on one compound are cited in US5672583A, “Carboxy-peptidyl derivatives as antidegenerative active agents” (Merck & Co., Inc., priority 1995, dated 1997).

For data set [1], the target named is T1, human rheumatoid synovial collagenase (Homo sapiens, UniProt P03956).
T1 sequence (P03956 100-469): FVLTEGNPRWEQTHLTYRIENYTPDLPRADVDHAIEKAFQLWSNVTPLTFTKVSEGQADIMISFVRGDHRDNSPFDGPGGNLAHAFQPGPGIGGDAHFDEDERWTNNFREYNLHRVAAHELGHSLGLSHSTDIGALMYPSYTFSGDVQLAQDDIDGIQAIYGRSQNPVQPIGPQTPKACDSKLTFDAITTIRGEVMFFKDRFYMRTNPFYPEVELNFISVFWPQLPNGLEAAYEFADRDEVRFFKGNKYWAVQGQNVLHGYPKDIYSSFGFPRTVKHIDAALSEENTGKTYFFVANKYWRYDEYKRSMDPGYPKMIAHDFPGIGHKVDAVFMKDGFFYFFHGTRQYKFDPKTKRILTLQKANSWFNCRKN
The note with it: Delaisse et al., Biochem. Biophys. Res. Commun. 133, 483-90 (1985).

Data set [2] has as its target rabbit bone proteoglycanase (Oryctolagus cuniculus, UniProt P28863). The note with it: Delaisse et al., Biochem. Biophys. Res. Commun. 133, 483-90 (1985).

rabbit bone proteoglycanase, sequence (P28863 101-478): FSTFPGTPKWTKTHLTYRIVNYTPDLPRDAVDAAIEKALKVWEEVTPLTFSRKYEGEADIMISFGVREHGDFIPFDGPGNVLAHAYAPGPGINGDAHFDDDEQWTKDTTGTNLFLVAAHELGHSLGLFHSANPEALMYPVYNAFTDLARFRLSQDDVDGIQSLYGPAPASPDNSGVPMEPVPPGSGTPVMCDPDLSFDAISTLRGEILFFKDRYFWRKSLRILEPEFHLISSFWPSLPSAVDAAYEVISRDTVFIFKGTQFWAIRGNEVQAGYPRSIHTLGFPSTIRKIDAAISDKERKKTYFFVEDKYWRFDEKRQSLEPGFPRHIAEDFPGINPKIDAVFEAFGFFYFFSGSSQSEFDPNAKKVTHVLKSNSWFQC

Consider `CNC(=O)[C@H](Cc1ccc(OC)cc1)NC(=O)[C@H](CC(C)C)NC(CCNC(=O)OCc1ccccc1)C(=O)O` (stereo partly drawn) [N-[3-(benzyloxycarbonyl)amino-1-carboxy-n-propyl]-L-leucyl-O-methyl-L-tyrosine, N-methylamide], for which the IC50 – broadly, the concentration at which inhibition is half-maximal – in data set [1] is 800 nM; in data set [2], 500 nM.
